# Tests used:
# CRAF = CRAF (Homo sapiens, UniProt P04049); experiment: CRAF kinase activity assay (ADP-Glo); format: biochemical
# Description: (§1) Compound preparation: solid samples of each substances in 1dram vials were suspended in DMSO (Fisher Scientific) at a stock concentration of 20 mM. Stocks were kept at −20° C. and protected from light. If solubility of the compound at 20 mM appeared to be an issue, the initial concentration of the DMSO stock was changed to 10 mM or 5 mM.
# (§2) In vitro enzymatic reactions were used for evaluating compounds intrinsic activity against BRAF, CRAF and ARAF. For BRAF and CRAF, 0.375 nM of purified GST-tagged kinases (cat #B4062-10UG and cat #R1656-10UG respectively from Millipore Sigma) were incubated with 75 nM of kinase-dead MEK1 substrate (cat #40075; BPS Bioscience) in the presence of 10 μM of Ultrapure ATP (cat #V9102; Promega; part V915A) with and without the test compound in a buffer containing 50 mM HEPES pH 7.5, 10 mM MgCl2, 1 mM EDTA, 0.01% Brij-35 and 2 mM DTT. Separate reactions were performed with the MEK1 substrate and ATP as a blank control. ARAF, kinase reactions were rigorously the same with the exception that kinase concentration was raised to 3.75 nM (cat #1768-0000-1; Reaction Biology).
# (§3) For compound treatment, 5 μL/well of test substance solution are placed in a 384-well proxyplate (Perkin Elmer) and mixed with 2× concentrated kinase reactions. The dilution series is selected so that nine concentrations cover a range from 100 nM to 0.01 nM. […] The final concentration of DMSO in the assay is set at 0.05%.
# (§4) BRAF and CRAF kinase reactions were carried out for a total of 2 hours at 30° C. and then stopped by ½ dilution in ADP-Glo Reagent (cat #V9102; Promega; part V912C). Reactions were then incubated for 1 h at room temperature before addition of one volume of Kinase Detection Reagent (cat #V9102; Promega; part V917A). Plates were then equilibrated at room temperature for 30 minutes before detection of luminescence on a Synergy Neo2 plate reader (Biotek). The effect of each compound dilution on BRAF and CRAF kinase activity was expressed as % inhibition and calculated as follows. First, the internal 100% inhibition control (average of luminescence in kinase reactions comprising kinase dead MEK1 substrate alone) was subtracted from each data point. The average of DMSO (vehicle) controls (set as 0% inhibition) was established and used to calculate % inhibition:
# (§5) IC50 values were obtained by plotting the kinase inhibition values and fitting the dose-activity curves using a log(agonist) versus response−variable slope (four parameters) function using either GraphPadPrism (V7.0) or Dotmatics Screening Ultra platform. Standards included in the ARAF kinase assay were Belvarafenib (MedChem Express cat #HY-109080; CAS #1446113-23-0), LXH254 (MedChem Express cat #HY-112089; CAS #1800398-38-2) and BGB283 (cat #HY-18957; CAS #1446090-79-4).
# HCT116 pERK = experiment: Phospho-ERK inhibition, AlphaLISA SureFire Ultra p-ERK 1/2; format: cell-based, human; settings: for HCT116 (Ymin %): lowest value of the pERK IC50 curve; for HCT116 pERK % Ymin (lowest value of the IC50 curve): value in brackets, Ymin above −20% = minimal or no paradoxical induction
# Summary of the method: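 IC50 derived by four-parameter fitting of % inhibition, with DMSO as 0% and 1 μM trametinib subtracted as background. Signal is AlphaLISA p-ERK1/2 (Thr202/Tyr204) in lysates of overnight-seeded cells (RPMI-1640, 5% FBS) treated 1 h with ten concentrations from 30 or 10 μM to 0.33 nM, 0.5% DMSO.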
# BRAF = target: T1, BRAF (Homo sapiens, UniProt P15056); experiment: BRAF kinase activity assay (ADP-Glo); format: biochemical
# T1 construct: GST; purchased Millipore Sigma B4062-10UG
# T1 sequence (P15056 whole entry): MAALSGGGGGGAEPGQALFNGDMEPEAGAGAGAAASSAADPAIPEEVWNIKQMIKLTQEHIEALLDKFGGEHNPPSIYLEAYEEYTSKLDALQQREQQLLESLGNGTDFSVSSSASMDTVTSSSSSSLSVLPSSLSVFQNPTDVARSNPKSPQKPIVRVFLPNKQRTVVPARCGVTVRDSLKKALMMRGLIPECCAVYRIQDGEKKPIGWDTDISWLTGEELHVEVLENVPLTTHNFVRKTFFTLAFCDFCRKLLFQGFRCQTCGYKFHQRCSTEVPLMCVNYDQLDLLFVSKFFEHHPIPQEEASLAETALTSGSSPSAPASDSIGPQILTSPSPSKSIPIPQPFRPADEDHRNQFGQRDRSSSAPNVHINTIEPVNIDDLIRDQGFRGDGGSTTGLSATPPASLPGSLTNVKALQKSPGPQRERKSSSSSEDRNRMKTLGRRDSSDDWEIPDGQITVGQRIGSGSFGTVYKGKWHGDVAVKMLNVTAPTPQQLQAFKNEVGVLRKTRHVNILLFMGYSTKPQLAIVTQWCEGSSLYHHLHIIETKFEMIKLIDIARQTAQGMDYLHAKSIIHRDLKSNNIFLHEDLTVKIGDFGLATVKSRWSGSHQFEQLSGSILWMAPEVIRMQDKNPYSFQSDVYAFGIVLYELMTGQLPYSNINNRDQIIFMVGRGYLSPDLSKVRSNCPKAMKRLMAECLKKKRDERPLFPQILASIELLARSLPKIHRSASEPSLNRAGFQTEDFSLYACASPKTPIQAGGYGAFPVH
# Description: as §1, §2, §3, §4, §5
# [1] = Homo sapiens, HCT-116, Table 3, 1 h treatment
# CRAF, sequence (P04049 whole entry): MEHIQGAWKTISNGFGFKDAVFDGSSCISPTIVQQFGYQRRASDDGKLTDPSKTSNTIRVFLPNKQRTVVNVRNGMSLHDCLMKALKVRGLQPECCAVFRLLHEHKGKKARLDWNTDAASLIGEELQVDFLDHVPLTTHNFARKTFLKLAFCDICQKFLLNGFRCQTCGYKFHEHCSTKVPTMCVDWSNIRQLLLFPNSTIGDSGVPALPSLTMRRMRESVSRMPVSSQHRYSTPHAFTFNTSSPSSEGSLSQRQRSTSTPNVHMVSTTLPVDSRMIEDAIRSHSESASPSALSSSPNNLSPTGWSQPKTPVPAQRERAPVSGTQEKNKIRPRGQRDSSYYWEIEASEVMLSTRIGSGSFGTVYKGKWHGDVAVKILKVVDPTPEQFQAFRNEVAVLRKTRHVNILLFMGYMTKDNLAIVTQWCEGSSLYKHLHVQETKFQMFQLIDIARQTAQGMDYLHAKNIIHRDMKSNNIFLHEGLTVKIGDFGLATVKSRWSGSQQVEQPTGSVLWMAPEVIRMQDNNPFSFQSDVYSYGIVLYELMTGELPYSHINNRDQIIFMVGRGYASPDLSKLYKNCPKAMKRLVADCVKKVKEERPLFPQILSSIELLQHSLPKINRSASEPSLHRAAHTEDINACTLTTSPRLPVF
SMILES,IC50 (CRAF; Table 3),"IC50 (HCT116 pERK; Table 3, 1 h treatment)",IC50 (BRAF; Table 3),IC50 (HCT116 pERK; [1]),IC50 (CRAF; CRAF biochemical kinase assay),"IC50 (HCT116 pERK; HCT116 cells, pERK)",HCT116 pERK % Ymin (lowest value of the IC50 curve) (HCT116 pERK; HCT116 cells),IC50 (BRAF; BRAF biochemical kinase assay),HCT116 (Ymin %) (HCT116 pERK; Table 3)
Cc1c(F)cccc1S(=O)(=O)Nc1ccc(F)c(Nc2ncnc3cnc(-n4nc(C(=O)N(C)C)c5ccccc54)nc23)c1F [Example 105],> 50 nM,< 500 nM,1 to 10 nM,,,,,,−8.7%
O=S(=O)(CC1CCOCC1)c1cn(-c2ncc3ncnc(Nc4c(F)ccc(NS(=O)(=O)c5cccc(Cl)c5Cl)c4F)c3n2)c2ccccc12 [Example 144],10 to 50 nM,< 500 nM,1 to 10 nM,,,,,,−9%
COC1CCN(c2cccc3c2ncn3-c2ncc3ncnc(Nc4c(F)ccc(NS(=O)(=O)c5cccc(Cl)c5Cl)c4F)c3n2)CC1 [Example 131],10 to 50 nM,< 500 nM,1 to 10 nM,,,,,,−4%
CCc1ccccc1S(=O)(=O)Nc1ccc(F)c(Nc2ncnc3cnc(-n4cnc5c(N6CCC(O)(CC)CC6)cccc54)nc23)c1F [Example 149],10 to 50 nM,< 500 nM,> 10 nM,,,,,,4%
CCC1(O)CCN(c2cccc3c2ncn3-c2ncc3ncnc(Nc4c(F)ccc(NS(=O)(=O)c5ccc(F)c(F)c5C)c4F)c3n2)CC1 [Example 155],> 50 nM,< 500 nM,1 to 10 nM,,,,,,−8%
O=S(=O)(Nc1ccc(F)c(Nc2ncnc3cnc(-n4nnc5c(N6CCC7(CCCO7)CC6)cccc54)nc23)c1F)c1cccc(Cl)c1Cl [Example 138],10 to 50 nM,< 500 nM,> 10 nM,,,,,,1%
CCc1ccccc1S(=O)(=O)Nc1ccc(F)c(Nc2ncnc3cnc(-n4cnc5ccccc54)nc23)c1F [Example 148],10 to 50 nM,1000 to 10000 nM,> 10 nM,,,,,,−1%
O=S(=O)(Nc1ccc(F)c(Nc2ncnc3cnc(-n4cnc5c(N6CC(CF)C6)cccc54)nc23)c1F)c1cccc(Cl)c1Cl [Example 140],10 to 50 nM,< 500 nM,> 10 nM,,,,,,−16%
Cc1c(S(=O)(=O)Nc2ccc(F)c(Nc3ncnc4cnc(-n5cnc6ccccc65)nc34)c2F)ccc(F)c1F [Example 154],> 50 nM,500 to 1000 nM,1 to 10 nM,,,,,,3%
Cc1c(F)cccc1S(=O)(=O)Nc1ccc(F)c(Nc2ncnc3cnc(-n4nc(C(=O)N(C)Cc5ccncc5)c5ccccc54)nc23)c1F [Example 106],10 to 50 nM,< 500 nM,< 1 nM,,,,,,−2.3%
Cc1c(F)cccc1S(=O)(=O)Nc1ccc(F)c(Nc2ncnc3cnc(-n4cc(C(=O)N(C)C)c5ccccc54)nc23)c1F [Example 97],10 to 50 nM,< 500 nM,< 1 nM,,,,,,−6.3%
Cc1cccc(S(=O)(=O)Nc2ccc(F)c(Nc3ncnc4cnc(-n5cnc6ccccc65)nc34)c2F)c1Cl [Example 152],> 50 nM,1000 to 10000 nM,1 to 10 nM,,,,,,−15%
O=S(=O)(Nc1cc(F)c(F)c(Nc2ncnc3cnc(-n4nnc5ccccc54)nc23)c1F)c1cccc(Cl)c1Cl [Example 161],,,,,< 10 nM,1000 to 10000 nM,−2.7%,1 to 10 nM,
O=S(=O)(Nc1cc(F)c(F)c(Nc2ncnc3cnc(-n4cnc5ccccc54)nc23)c1F)c1cccc(Cl)c1Cl [Example 160],,,,,< 10 nM,< 500 nM,−9%,1 to 10 nM,
Cc1c(F)cccc1S(=O)(=O)Nc1ccc(F)c(Nc2ncnc3cnc(-n4cc(S(=O)(=O)N(C)Cc5ccncc5)c5ccccc54)nc23)c1F [Example 113],10 to 50 nM,500 to 1000 nM,1 to 10 nM,,,,,,−7.0%
CCS(=O)(=O)c1cn(-c2ncc3ncnc(Nc4c(F)ccc(NS(=O)(=O)c5cccc(Cl)c5Cl)c4F)c3n2)c2ccccc12 [Example 141],10 to 50 nM,< 500 nM,1 to 10 nM,,,,,,−3%
O=S(=O)(Nc1ccc(F)c(Nc2ncnc3cnc(-n4cnc5c(N6CC(CCO)C6)cccc54)nc23)c1F)c1cccc(Cl)c1Cl [Example 147],10 to 50 nM,< 500 nM,1 to 10 nM,,,,,,−9%

# Second part, led by results:
IC50 (CRAF; Table 3),"IC50 (HCT116 pERK; Table 3, 1 h treatment)",IC50 (BRAF; Table 3),IC50 (HCT116 pERK; [1]),IC50 (CRAF; CRAF biochemical kinase assay),"IC50 (HCT116 pERK; HCT116 cells, pERK)",HCT116 pERK % Ymin (lowest value of the IC50 curve) (HCT116 pERK; HCT116 cells),IC50 (BRAF; BRAF biochemical kinase assay),SMILES,HCT116 (Ymin %) (HCT116 pERK; Table 3)
< 10 nM,< 500 nM,< 1 nM,,,,,,O=S(=O)(Nc1ccc(F)c(Nc2ncnc3cnc(-n4nnc5c(N6CCN(CCO)CC6)cccc54)nc23)c1F)c1cccc(Cl)c1Cl [Example 139],2%
< 10 nM,< 500 nM,1 to 10 nM,,,,,,CC1(O)CCN(c2cccc3c2ncn3-c2ncc3ncnc(Nc4c(F)ccc(NS(=O)(=O)c5cccc(Cl)c5Cl)c4F)c3n2)CC1 [Example 130],−13%
< 10 nM,1000 to 10000 nM,1 to 10 nM,,,,,,Cc1c(F)cccc1S(=O)(=O)Nc1ccc(F)c(Nc2ncnc3cnc(-n4nnc5ccccc54)nc23)c1F [Example 121],−4%
< 10 nM,< 500 nM,1 to 10 nM,,,,,,N#CC1CCN(c2cccc3c2ncn3-c2ncc3ncnc(Nc4c(F)ccc(NS(=O)(=O)c5cccc(Cl)c5Cl)c4F)c3n2)CC1 [Example 132],−4%
< 10 nM,< 500 nM,1 to 10 nM,,,,,,CN(CCO)c1cccc2c1ncn2-c1ncc2ncnc(Nc3c(F)ccc(NS(=O)(=O)c4cccc(Cl)c4Cl)c3F)c2n1 [Example 134],8%
< 10 nM,< 500 nM,< 1 nM,,,,,,O=S(=O)(Nc1ccc(F)c(Nc2ncnc3cnc(-n4cnc5c(N6CCN(CCO)CC6)cccc54)nc23)c1F)c1cccc(Cl)c1Cl [Example 146],−9%
< 10 nM,< 500 nM,1 to 10 nM,,,,,,CCC1(O)CCN(c2cccc3c2ncn3-c2ncc3ncnc(Nc4c(F)ccc(NS(=O)(=O)c5cccc(Cl)c5Cl)c4F)c3n2)CC1 [Example 133],−6%
< 10 nM,500 to 1000 nM,1 to 10 nM,,,,,,O=S(=O)(Nc1ccc(F)c(Nc2ncnc3cnc(-n4cnc5ccccc54)nc23)c1F)c1cccc(Cl)c1C(F)(F)F [Example 156],
< 10 nM,,< 1 nM,< 500 nM,,,,,Cc1c(F)cccc1S(=O)(=O)Nc1ccc(F)c(Nc2ncnc3cnc(-n4cc(S(=O)(=O)N5CCN(C)CC5)c5ccccc54)nc23)c1F [Example 96],
< 10 nM,< 500 nM,< 1 nM,,,,,,O=S(=O)(Nc1ccc(F)c(Nc2ncnc3cnc(-n4cc(S(=O)(=O)C5CCOCC5)c5ccccc54)nc23)c1F)c1cccc(Cl)c1Cl [Example 142],−15%
< 10 nM,< 500 nM,< 1 nM,,,,,,Cc1c(F)cccc1S(=O)(=O)Nc1ccc(F)c(Nc2ncnc3cnc(-n4cc(C(=O)N(C)CCO)c5ccccc54)nc23)c1F [Example 101],3.5%
< 10 nM,,1 to 10 nM,500 to 1000 nM,,,,,N#CC1(c2cccc3c2nnn3-c2ncc3ncnc(Nc4c(F)ccc(NS(=O)(=O)c5cccc(Cl)c5Cl)c4F)c3n2)CC1 [Example 135],
< 10 nM,< 500 nM,< 1 nM,,,,,,CN(C)C1CCN(c2cccc3c2ncn3-c2ncc3ncnc(Nc4c(F)ccc(NS(=O)(=O)c5cccc(Cl)c5Cl)c4F)c3n2)CC1 [Example 145],−8%
< 10 nM,500 to 1000 nM,< 1 nM,,,,,,Cc1c(F)cccc1S(=O)(=O)Nc1ccc(F)c(Nc2ncnc3cnc(-n4cc(C(=O)N5CCC[C@H](O)C5)c5ccccc54)nc23)c1F [Example 103],−9.9%

# Source: US20240239801A1, “PYRIMIDO[5,4,D]PYRIMIDINE COMPOUNDS, COMPOSITIONS COMPRISING THEM AND USES THEREOF” (Université de Montréal, priority 2021, published 2024)
